Experimental data: patent publication US20230310376A1, “PROPHYLACTIC AND/OR THERAPEUTIC AGENT FOR IDIOPATHIC PULMONARY FIBROSIS” (ONO PHARMACEUTICAL CO., LTD., priority 2020, published 2023)
pEC50: −log10 of the molar value. “Also recorded” adds a separate entry of the source.

Assays:
[1] = molecular target: human LPA1 receptor (Homo sapiens, UniProt Q92633); assay: LPA1 agonistic activity measurement in receptor-expressing cell strain; assay type: cell-based; conditions: cell strain stably expressing human LPA1 receptor
Chain of human LPA1 receptor (Q92633 whole entry): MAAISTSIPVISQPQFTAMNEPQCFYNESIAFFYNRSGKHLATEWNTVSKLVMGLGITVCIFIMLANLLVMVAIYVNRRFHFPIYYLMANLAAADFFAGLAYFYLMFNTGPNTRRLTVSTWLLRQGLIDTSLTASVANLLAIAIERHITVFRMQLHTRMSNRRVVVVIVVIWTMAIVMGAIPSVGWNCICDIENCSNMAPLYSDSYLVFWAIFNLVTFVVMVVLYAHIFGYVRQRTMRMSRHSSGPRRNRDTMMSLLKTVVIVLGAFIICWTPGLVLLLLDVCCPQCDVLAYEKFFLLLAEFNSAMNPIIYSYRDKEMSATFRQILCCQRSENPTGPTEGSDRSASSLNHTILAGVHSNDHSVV

[2] = molecular target: LPA2 receptor (Homo sapiens, UniProt Q9HBW0); assay: LPA2 agonistic activity measurement in receptor-expressing cell strain; assay type: cell-based; conditions: cell strain stably expressing LPA2 receptor
Chain of LPA2 receptor (Q9HBW0 whole entry): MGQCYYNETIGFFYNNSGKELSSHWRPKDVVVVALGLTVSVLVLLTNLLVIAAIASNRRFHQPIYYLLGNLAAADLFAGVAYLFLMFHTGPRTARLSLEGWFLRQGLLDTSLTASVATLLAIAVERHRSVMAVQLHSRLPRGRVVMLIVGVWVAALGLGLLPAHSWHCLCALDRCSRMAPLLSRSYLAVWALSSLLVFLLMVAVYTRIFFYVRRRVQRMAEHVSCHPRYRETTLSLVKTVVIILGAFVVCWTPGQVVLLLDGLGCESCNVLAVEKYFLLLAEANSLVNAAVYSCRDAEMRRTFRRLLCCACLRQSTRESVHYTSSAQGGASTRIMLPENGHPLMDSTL

[3] = tested on: bleomycin-induced pulmonary fibrosis models produced using male ICR mice; assay: Bleomycin-induced pulmonary fibrosis model, male ICR mice; assay type: in vivo, mouse; conditions: bleomycin i.v. 5 days, 0.3, 1, 3 mg/kg oral two times/day to day 28, vs medium-administered group
Description: Male ICR mice (Charles River Laboratories Japan, Inc., the week age at the start of experiment: 12-week old) were used. Bleomycin hydrochloride (Nippon Kayaku Co., Ltd.) was dissolved in physiological saline (Otsuka Pharmaceutical Factory, Inc.) to prepare a 3-mg/mL solution. The bleomycin solution thus prepared was administered into a tail vein of each of the mice at a dosage volume of 5 mL/kg at a frequency of 1 time/day for 5 days. For a normal group, physiological saline was administered into a tail vein at a dosage volume of 5 mL/kg at a frequency of 1 time/day for 5 days.
(§1) On the day of first administration of bleomycin, the body weights were measured, and the mice were divided into groups equally in such a manner that a significant difference was not observed in the average values of the body weights among the groups. After the grouping, the administration of a test substance or the medium started, and the administration was performed repeatedly through oral route at a frequency of two times/day from the day of the first administration of bleomycin to day 28. The volume of a solution to be administered was calculated on the basis of the body weight of each of the mice.
On the next day of the day of the final administration, each of the animals was subjected to the opening of the abdominal cavity under the anesthesia with 2% isoflurane, and then the abdomen aorta in each of the mice was dissected to bleed to death. After the bleeding to death, the right lung was excised, and the lung wet weight was measured. Subsequently, the tissues of the right lung were dried with a dry-heat sterilizer, and the dry weight of the right lung was measured. […] The weight of the product after the neutralization was measured to calculate the amount (g) of the sample after the neutralization. […]
A chloramine T reagent (1 mL) was added to an HYP standard solution (2 mL), the resultant mixture was left to stand for 20 minutes at room temperature, then a perchloric acid reagent (1 mL) was added to the solution, and then the resultant mixture was left to stand for 5 minutes at room temperature. A p-dimethylaminobenzaldehyde reagent (1 mL) was added to the solution, then the resultant mixture was warmed to 60° C. for 20 minutes, and then the absorbance of a supernatant produced by the filtration of the mixture through a filter was measured at 557 nm with a spectrophotometer to produce a standard curve.
With respect to each of the HYP content measurement samples (2 mL), the measurement of the absorbance was performed in the same manner as mentioned above, and then the HYP content (μg/mL) was calculated on the basis of the standard curve. […] The HYP amount in the right lung (μg/Lung) was calculated in accordance with the following equation. […]

[4] = tested on: bleomycin-induced pulmonary fibrosis model, wild-type male C57BL/6N mice; assay: Bleomycin-induced pulmonary fibrosis model, wild-type C57BL/6N mice; assay type: in vivo, mouse; conditions: transpulmonary bleomycin, 3 mg/kg oral two times/day to day 21, vs medium-administered group
Description: (§2) Wild-type and LPA3 receptor-deficient male C57BL/6N mice (Oriental BioService, Inc., the week age at the start of the experiment: 13-week old) were used. Bleomycin hydrochloride (Nippon Kayaku Co., Ltd.) was dissolved in physiological saline (Otsuka Pharmaceutical Factory, Inc.) to prepare a 0.41-mg/mL solution. The bleomycin solution thus prepared was administered to each of the mice at a dosage volume of 75 μL through a transpulmonary route. For a normal group, physiological saline was administered at a dosage volume of 75 μL through a transpulmonary route.
as §1, with “through an” for “through”, “21.” for “28.”, “mice. […]” for “mice.”

[5] = tested on: bleomycin-induced pulmonary fibrosis models produced using LPA3 receptor-deficient C57BL/6N mice; assay: Bleomycin-induced pulmonary fibrosis model, LPA3 receptor-deficient C57BL/6N mice; assay type: in vivo, mouse; conditions: transpulmonary bleomycin, 3 mg/kg oral two times/day to day 21, vs medium-administered group
Description: as §2
as §1, with “through an” for “through”, “21.” for “28.”
On the next day of the day of the final administration, each of the animals was subjected to the opening of the abdominal cavity under the anesthesia with a three types of mixed anesthetic agent (the intraperitoneal administration of 0.3 mg/10 mL/kg of medetomidine, 4 mg/10 mL/kg of midazolam, and 5 mg/10 mL/kg of butorphanol), and then the abdomen aorta in each of the animals was dissected to bleed to death. After the bleeding to death, the lung was excised, and the lung wet weight was measured. Subsequently, the lung was frozen. The frozen lung was homogenized, and then 11.2-N hydrochloric acid (200 μL) was added to a homogenate solution to hydrolyze the homogenate solution at about 120° C. for 34 hours. The content of hydroxyproline in the solution after the hydrolysis was measured using a hydroxyproline quantification kit (BioVision, Inc.).

`Cc1ccc(Cn2c(C(=O)O)c(CNC3CCC3)c3ccccc32)cc1` [Compound I, 3-[(Cyclobutylamino)methyl]-1-(4-methylbenzyl)-1H-indol-2-carboxylic acid] was tested, and the pEC50 [1] was < 5.00, the pEC50 [2] was < 5.00 and the “weight of the right lung” value ([3]; FIG. 1) was “significantly prevented the increase; also recorded: prevents the increase in the weight of the lung”. For the same compound, the “weight of the right lung” value ([3]; FIG. 1, listed as Example 1) was “lower compared with those in the medium-administered group”, the “HYP (hydroxyproline) amount in the right lung” value ([3]; FIG. 2) was “significantly prevented the increase; also recorded: prevents the increase in the amount of hydroxyproline” and the “HYP (hydroxyproline) amount in the right lung” value ([3]; FIG. 2, listed as Example 1) was “lower compared with those in the medium-administered group”. For the same compound, the lung weight ([4]; FIG. 3) was “smaller compared with those in the medium-administered group”, the “HYP amount in the lung” value ([4]; FIG. 4) was “smaller compared with those in the medium-administered group” and the lung weight ([5]; FIG. 3, 3 mg/kg) was “does not prevent the increase in the weight of the lung”. The lung weight ([5]; FIG. 3, listed as Example 1, 3 mg/kg) was “did not show significant difference compared with those in the medium-administered group”, the “HYP amount in the lung” value ([5]; FIG. 4, 3 mg/kg) was “does not prevent the increase in the amount of hydroxyproline” and the “HYP amount in the lung” value ([5]; FIG. 4, listed as Example 1, 3 mg/kg) was “did not show significant difference compared with those in the medium-administered group”.
